{"source": "paper PMC11923824", "about": "“Spider-derived peptide LCTx-F2 suppresses ASIC channels by occupying the acidic pocket” (The Journal of Biological Chemistry, 2025)", "origin": "cited, not measured here", "molecules": {"B1": {"name": "matriptase: protease cleaving ASIC1a (protein, UniProt Q9Y5Y6 1-855, looked up)", "Suppressor of tumorigenicity …": "MGSDRARKGGGGPKDFGAGLKYNSRHEKVNGLEEGVEFLPVNNVKKVEKHGPGRWVVLAAVLIGLLLVLLGIGFLVWHLQYRDVRVQKVFNGYMRITNENFVDAYENSNSTEFVSLASKVKDALKLLYSGVPFLGPYHKESAVTAFSEGSVIAYYWSEFSIPQHLVEEAERVMAEERVVMLPPRARSLKSFVVTSVVAFPTDSKTVQRTQDNSCSFGLHARGVELMRFTTPGFPDSPYPAHARCQWALRGDADSVLSLTFRSFDLASCDERGSDLVTVYNTLSPMEPHALVQLCGTYPPSYNLTFHSSQNVLLITLITNTERRHPGFEATFFQLPRMSSCGGRLRKAQGTFNSPYYPGHYPPNIDCTWNIEVPNNQHVKVRFKFFYLLEPGVPAGTCPKDYVEINGEKYCGERSQFVVTSNSNKITVRFHSDQSYTDTGFLAEYLSYDSSDPCPGQFTCRTGRCIRKELRCDGWADCTDHSDELNCSCDAGHQFTCKNKFCKPLFWVCDSVNDCGDNSDEQGCSCPAQTFRCSNGKCLSKSQQCNGKDDCGDGSDEASCPKVNVVTCTKHTYRCLNGLCLSKGNPECDGKEDCSDGSDEKDCDCGLRSFTRQARVVGGTDADEGEWPWQVSLHALGQGHICGASLISPNWLVSAAHCYIDDRGFRYSDPTQWTAFLGLHDQSQRSAPGVQERRLKRIISHPFFNDFTFDYDIALLELEKPAEYSSMVRPICLPDASHVFPAGKAIWVTGWGHTQYGGTGALILQKGEIRVINQTTCENLLPQQITPRMMCVGFLSGGVDSCQGDSGGPLSSVEADGRIFQAGVVSWGDGCAQRNKPGVYTRLPLFRDWIKENTGV"}}, "key": {"ASIC3 channel": {"system": "ASIC3 channel", "settings": "nonproton ligand", "excerpt": "(§1) ASIC channels, particularly ASIC1a and ASIC3, are affected by certain cations like Ca^2+ and Zn^2+, which provides valuable insights for the development of novel drugs targeting ASICs. […] Depletion of insulin leads to an increase in ASIC1a channel expression in Chinese hamster ovary cells and neurons."}, "ASICs": {"system": "ASICs", "settings": "no reference given", "excerpt": "as §1"}, "neuron": {"system": "neuron", "settings": "no reference given", "excerpt": "as §1"}, "humans": {"system": "humans", "settings": "no reference given", "excerpt": "as §1"}, "rASIC3 channel": {"biological_target": "T1, rASIC3 channel (Rattus norvegicus, UniProt O35240)", "T1 construct": "expressed in transfected cells; host or cells: human embryonic kidney 293 cells", "T1 sequence (O35240 1-533)": "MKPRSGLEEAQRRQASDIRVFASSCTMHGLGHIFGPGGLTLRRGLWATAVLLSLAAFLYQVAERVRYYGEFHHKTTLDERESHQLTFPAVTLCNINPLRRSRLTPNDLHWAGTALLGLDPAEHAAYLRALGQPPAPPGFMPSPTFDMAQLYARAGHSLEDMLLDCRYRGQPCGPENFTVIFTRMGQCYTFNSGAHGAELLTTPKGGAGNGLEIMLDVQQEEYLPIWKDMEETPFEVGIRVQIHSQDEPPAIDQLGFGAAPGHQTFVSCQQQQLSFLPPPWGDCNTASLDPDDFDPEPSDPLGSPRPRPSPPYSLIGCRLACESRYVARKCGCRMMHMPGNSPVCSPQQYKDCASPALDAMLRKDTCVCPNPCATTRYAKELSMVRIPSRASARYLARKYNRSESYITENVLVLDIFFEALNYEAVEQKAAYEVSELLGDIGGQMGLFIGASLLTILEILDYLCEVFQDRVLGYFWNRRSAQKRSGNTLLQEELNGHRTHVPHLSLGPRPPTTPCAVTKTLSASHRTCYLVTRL", "excerpt": "Venom serves as a crucial weapon for animals in hunting prey and defending against enemies. Spider venom contains a variety of peptide toxins, some of which induce pain by targeting different ion channels ([29], [30], [31]), whereas others have analgesic properties and block the pain pathway ([32], [33], [34]). […] Derived from the spider Lycosa singoriensis, LCTx-F2 enhances ... || ASICs play a crucial role in pain perception among mammals ([39], [40]). Some animal toxins that are involved in prey capture and defense mechanisms act on ASICs ([26], [41]). For instance, the venom from Micrurus tener tener causes intense and persistent pain by enhancing the activation of ASICs through the MitTx toxin ([27]). ASICs are also considered important targets for pain relief, and certain chemicals that block their activity have shown strong analgesic effects in tests with living organisms ([42], [43])."}, "human ASIC3 channel": {"system": "human ASIC3 channel", "excerpt": "ASICs play a crucial role in pain perception among mammals ([39], [40]). Some animal toxins that are involved in prey capture and defense mechanisms act on ASICs ([26], [41]). For instance, the venom from Micrurus tener tener causes intense and persistent pain by enhancing the activation of ASICs through the MitTx toxin ([27]). ASICs are also considered important targets for pain relief, and certain chemicals that block their activity have shown strong analgesic effects in tests with living organisms ([42], [43])."}, "ischemic stroke": {"system": "ischemic stroke", "excerpt": "as §1"}, "ASIC1a channel": {"system": "ASIC1a channel", "excerpt": "ASIC channels, particularly ASIC1a and ASIC3, are affected by certain cations like Ca^2+ and Zn^2+, which provides valuable insights for the development of novel drugs targeting ASICs. […] Depletion of insulin leads to an increase in ASIC1a channel expression in Chinese hamster ovary cells and neurons. […] Spider venom contains a variety of peptide toxins, some of which induce pain by targeting different ion channels ([29], [30], [31]), whereas others have analgesic properties and block the pain pathway ([32], [33], [34]). […] Derived from the spider Lycosa singoriensis, LCTx-F2 enhances ..."}, "rASIC2a channel": {"system": "rASIC2a channel", "excerpt": "Venom serves as a crucial weapon for animals in hunting prey and defending against enemies. Spider venom contains a variety of peptide toxins, some of which induce pain by targeting different ion channels ([29], [30], [31]), whereas others have analgesic properties and block the pain pathway ([32], [33], [34]). […] Derived from the spider Lycosa singoriensis, LCTx-F2 enhances ..."}, "[1]": {"system": "ASICs in dorsal root ganglion neurons", "settings": "no reference given", "excerpt": "as §1"}, "hASIC1a channel": {"system": "hASIC1a channel", "settings": "interacts with helix α5 of the thumb domain"}, "[2]": {"system": "ASIC1a channel in Xenopus oocytes", "settings": "no reference given", "excerpt": "as §1"}}}
{"molecule": "Cc1nc(NC(=N)N)nc2ccccc12", "note": "[2-guanidine-4-methylquinazoline]", "values": [{"measurement": "activation of ASIC3", "setting": "ASIC3 channel", "value": "activated"}]}
{"molecule": "N=C(N)NC(=O)c1nc(Cl)c(N)nc1N", "note": "[Amiloride]", "values": [{"measurement": "effect on ASICs, amiloride", "setting": "ASICs", "value": "can suppress most ASICs"}, {"measurement": "protection against acidosis-induced neuron damage", "setting": "neuron", "value": "provides protection against acidosis-induced neuron damage"}, {"measurement": "analgesic effect in humans", "setting": "humans", "value": "has shown analgesic effects in humans"}]}
{"molecule": "APETx2", "values": [{"measurement": "effect on rASIC3 (in words)", "setting": "rASIC3 channel", "value": "inhibit both rASIC3 and hASIC3 channels"}, {"measurement": "inhibition of hASIC3 (in words)", "setting": "human ASIC3 channel", "value": "inhibit both rASIC3 and hASIC3 channels"}, {"measurement": "IC50", "setting": "human ASIC3 channel; read-out: IC50 against human ASIC3 channel", "value": 175, "unit": "nM"}]}
{"molecule": "PcTx1", "values": [{"measurement": "neuroprotection in ischemic stroke", "setting": "ischemic stroke", "value": "exhibits neuroprotection"}, {"measurement": "effect on ASIC1a (in words)", "setting": "ASIC1a channel", "value": "selectively inhibit the ASIC1a channel"}, {"measurement": "site of action on ASIC1a", "setting": "ASIC1a channel", "value": "inserts into the acidic pocket of ASIC1a channels"}, {"measurement": "effect on rASIC2a (in words)", "setting": "rASIC2a channel", "value": "not the rASIC2a or rASIC3 channels"}]}
{"molecule": "bradykinin: proinflammatory mediator (RPPGFSPFR; Bradykinin; UniProt P01042 381-389, looked up)", "values": [{"measurement": "effect on ASIC expression", "setting": "[1]", "value": "increase the expression of ASICs"}]}
{"molecule": "mambalgin-1: snake toxin mambalgin-1 (LKCYQHGKVVTCHRDMKFCYHNTGMPFRNLKLILQGCSSSCSETENNKCCSTDRCNK; UniProt P0DKR6 22-78, looked up)", "values": [{"measurement": "effect on proton sensitivity of hASIC1a", "setting": "hASIC1a channel", "value": "reduces the proton sensitivity"}]}
{"molecule": "nerve growth factor: proinflammatory mediator", "values": [{"measurement": "effect on ASIC expression", "setting": "[1]", "value": "increase the expression of ASICs"}]}
{"molecule": "B1", "values": [{"measurement": "effect of cleavage on ASIC1a current", "setting": "[2]", "value": "reduces its current"}]}
